Assay results: article PMC6982861, “Synthesis, Structural Characterization, and Biological Activity of New Pyrazolo[4,3-e][1,2,4]triazine Acyclonucleosides” (Molecules, 2020)
Where two headings read alike, the source gives them in different places.

Legend:
[1] = biological target: T1, (Homo sapiens, UniProt P00519); test: […] kinase assay, P-81 phosphocellulose; assay type: biochemical
T1 construct: gene ABL1; Abl kinase

[2] = […] kinase assay, P-81 phosphocellulose; assay type: biochemical, Homo sapiens; settings: read-out: MTT Assay ^a, IC50 (μM) / K-562
[3] = biological target: T2, CDK2/Cyclin E (Homo sapiens, UniProt P24941); test: […] kinase assay, P-81 phosphocellulose; assay type: biochemical
T2 construct: kinase complex; with G1/S-specific cyclin-E1

[4] = read-out: MTT Assay ^a, IC50 (μM) / K-562

T1 sequence (P00519 whole entry): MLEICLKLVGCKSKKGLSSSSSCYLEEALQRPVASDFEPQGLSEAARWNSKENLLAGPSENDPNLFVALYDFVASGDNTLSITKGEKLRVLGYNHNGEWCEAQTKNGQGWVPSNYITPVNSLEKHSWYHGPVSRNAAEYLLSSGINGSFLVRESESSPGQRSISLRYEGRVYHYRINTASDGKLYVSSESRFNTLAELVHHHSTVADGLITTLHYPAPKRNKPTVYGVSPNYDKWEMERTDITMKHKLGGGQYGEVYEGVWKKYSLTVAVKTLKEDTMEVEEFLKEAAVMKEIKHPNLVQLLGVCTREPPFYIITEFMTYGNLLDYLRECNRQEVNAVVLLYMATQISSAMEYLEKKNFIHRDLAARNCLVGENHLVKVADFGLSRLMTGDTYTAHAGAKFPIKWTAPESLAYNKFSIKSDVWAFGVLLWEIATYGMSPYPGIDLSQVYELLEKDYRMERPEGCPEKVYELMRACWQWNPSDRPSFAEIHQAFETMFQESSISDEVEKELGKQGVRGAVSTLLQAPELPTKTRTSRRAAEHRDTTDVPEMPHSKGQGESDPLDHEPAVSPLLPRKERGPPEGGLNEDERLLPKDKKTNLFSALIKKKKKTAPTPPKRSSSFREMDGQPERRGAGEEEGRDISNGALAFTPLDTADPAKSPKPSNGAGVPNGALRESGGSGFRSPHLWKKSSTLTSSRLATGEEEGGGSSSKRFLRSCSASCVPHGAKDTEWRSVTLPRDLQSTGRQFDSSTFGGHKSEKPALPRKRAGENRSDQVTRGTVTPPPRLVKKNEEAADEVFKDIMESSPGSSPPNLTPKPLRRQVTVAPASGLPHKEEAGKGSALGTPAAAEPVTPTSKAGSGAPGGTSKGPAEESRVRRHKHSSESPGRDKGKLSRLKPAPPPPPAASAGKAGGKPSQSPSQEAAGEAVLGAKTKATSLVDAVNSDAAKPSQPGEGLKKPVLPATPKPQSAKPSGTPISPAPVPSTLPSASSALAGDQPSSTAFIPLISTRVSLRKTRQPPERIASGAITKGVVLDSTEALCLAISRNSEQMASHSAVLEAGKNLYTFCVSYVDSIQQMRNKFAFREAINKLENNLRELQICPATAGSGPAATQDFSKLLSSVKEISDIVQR

SMILES	IC50 [1, 4]	IC50 [2]	IC50 ([1]; read-out: IC50 (μM) ^a / CDK2/Cyclin E)	IC50 [3]
CSc1nnc2c(n1)c(C)nn2CC(O)CO (centres unmarked) [compound 4, 1-(2,3-dihydroxypropyl)-3-methyl–5-methylsulfanyl-1H-pyrazolo[4,3-e][1,2,4]triazine]	> 100 µM	> 100 µM	–	–
CSc1nnc2nn(CCO)c(C)c2n1 [compound 3, 2-(2-hydroxyethyl)-3-methyl-5-methylsulfanyl-2H-pyrazolo[4,3-e][1,2,4]triazine]	> 100 µM	> 100 µM	–	–
CSc1nnc2c(n1)c(C)nn2CCO [compound 2, 1-(2-hydroxyethyl)-3-methyl–5-methylsulfanyl-1H-pyrazolo[4,3-e][1,2,4]triazine]	> 100 µM	> 100 µM	–	–
CSc1nnc2[nH]nc(C)c2n1 [compound 1, 3-methyl-5-methylsulfanyl-1H-pyrazolo[4,3-e][1,2,4]triazine]	> 100 µM	> 100 µM	–	–

The remaining lines, values ahead:

IC50 [1, 4]	IC50 [2]	IC50 ([1]; read-out: IC50 (μM) ^a / CDK2/Cyclin E)	IC50 [3]	SMILES
–	–	> 50 µM	> 50 µM	CCOC(=O)C(CCn1nc(C)c2nc(SC)nnc21)C(=O)OCC [compound 7, 1-(ethyl 2-carboethoxybutanoate-4-yl)-3-methyl-5-methylsulfanyl-1H-pyrazolo[4,3-e][1,2,4]triazine]
> 100 µM	> 100 µM	–	–	CSc1nnc2c(n1)c(C)nn2CCC(CO)CO [compound 8, 1-[(4-hydroxy-3-hydroxymethyl)butyl]-3-methyl-5-methylsufanyl-1H-pyrazolo[4,3-e][1,2,4]triazine]
> 100 µM	> 100 µM	–	–	CSc1nnc2c(n1)c(C)nn2CCBr [compound 6, 1-(2-bromoethyl)-3-methyl-5-methylsulfanyl-1H-pyrazolo[4,3-e][1,2,4]triazine]
